Columns and labels:
[1] = tested on: rat primary cortical neurons; experiment: Neurite outgrowth (neurites length) in beta-amyloid Aβ25-35 intoxicated rat primary cortical neuron culture; assay type: cell-based; conditions: Aβ25-35 20 μM for 2 days, drug added 1 hour before, Fig. 1A, 1B
Source text: Viable cells are counted in a Neubauer cytometer using the trypan blue exclusion test.

[2] = tested on: rat primary cortical neurons; experiment: LDH release in human Aβ1-42 toxicity on rat primary cortical cells; assay type: cell-based; conditions: 1 h pre-treatment, Aβ1-42 10 μM for 24 h
Experimental: Primary rat cortical neurons are cultured as described previously. […] The control medium was prepared in the same conditions.
Cortical neurons were intoxicated for 24 hours. Three separate cultures were performed per condition, 6 wells per condition.
This colorimetric assay for the quantification of cell toxicity is based on the measurement of lactate dehydrogenase (LDH) activity released from the cytosol of dying cells into the supernatant.

| Molecule | Prevention of Aβ25-35 intoxication (neurite outgrowth, neurites length) [1] | Prevention of Aβ1-42 intoxication, change of LDH release ([2]; Fig. 3B, 3C) | Protection from Aβ1-42 amyloid injury (LDH release) ([2]; Fig. 3A) |
| --- | --- | --- | --- |
| CC(=O)NCCCS(=O)(=O)O [Acamprosate] | significantly prevented | – | – |
| NS(=O)(=O)Cc1noc2ccccc12 [Zonisamide] | significantly prevented | −75% | – |
| BDNF: Brain-derived neurotrophic factor, used as a positive (neuroprotective) control (protein, UniProt P23560 19-247, looked up) Neurotrophic factor BDNF …: APMKEANIRGQGGLAYPGVRTHGTLESVNGPKAGSRGLTSLADTFEHVIEELLDEDQKVRPNEENNKDADLYTSRVMLSSQVPLEPPLLFLLEEYKNYLDAANMSMRVRRHSDPARRGELSVCDSISEWVTAADKKTAVDMSGGTVTVLEKVPVSKGQLKQYFYETKCNPMGYTKEGCRGIDKRHWNSQCRTTQSYVRALTMDSKKRIGWRFIRIDTSCVCTLTIKRGR | efficiently prevented | – | significantly protected |

From patent US10874644B2, “Therapeutic approaches for treating Alzheimer disease and related disorders through a modulation of synapse function” (Pharnext, priority 2008, dated 2020)
